The NIST ThermoML archive (doi:10.1021/je4010678)

Test: xn = mol fraction of the nth substance listed
Conditions: 101 kPa, Liquid, Scientific instruments device model 9700

[I-].[K+] [potassium iodide] + C[S+](C)[O-]
Conditions	electrical conductivity [S/m]
293.15 K, x1 = 0.0001281	0.00573
293.15 K, x1 = 0.0001586	0.00687
293.15 K, x1 = 0.0003312	0.0147
293.15 K, x1 = 0.0006135	0.0267
293.15 K, x1 = 0.001095	0.0457
293.15 K, x1 = 0.002002	0.0778
293.15 K, x1 = 0.005707	0.183
293.15 K, x1 = 0.01	0.348
293.15 K, x1 = 0.0197	0.605
293.15 K, x1 = 0.04	0.8279
293.15 K, x1 = 0.0499	0.9283
293.15 K, x1 = 0.0707	0.9369
295.15 K, x1 = 0.0001281	0.00602
295.15 K, x1 = 0.0001586	0.00718
295.15 K, x1 = 0.0003312	0.0153
295.15 K, x1 = 0.0006135	0.0279
295.15 K, x1 = 0.001095	0.0475
295.15 K, x1 = 0.002002	0.0809
295.15 K, x1 = 0.005707	0.19
295.15 K, x1 = 0.01	0.362
295.15 K, x1 = 0.0197	0.632
295.15 K, x1 = 0.04	0.8651
295.15 K, x1 = 0.0499	0.9694
295.15 K, x1 = 0.0707	0.9785
297.15 K, x1 = 0.0001281	0.0063
297.15 K, x1 = 0.0001586	0.00749
297.15 K, x1 = 0.0003312	0.0159
297.15 K, x1 = 0.0006135	0.0291
297.15 K, x1 = 0.001095	0.0493
297.15 K, x1 = 0.002002	0.0841
297.15 K, x1 = 0.005707	0.198
297.15 K, x1 = 0.01	0.377
297.15 K, x1 = 0.0197	0.659
297.15 K, x1 = 0.04	0.9006
297.15 K, x1 = 0.0499	1.013
297.15 K, x1 = 0.0707	1.023
299.15 K, x1 = 0.0001281	0.00656
299.15 K, x1 = 0.0001586	0.00782
299.15 K, x1 = 0.0003312	0.0165
299.15 K, x1 = 0.0006135	0.0303
299.15 K, x1 = 0.001095	0.0511
299.15 K, x1 = 0.002002	0.0872
299.15 K, x1 = 0.005707	0.205
299.15 K, x1 = 0.01	0.392
299.15 K, x1 = 0.0197	0.686
299.15 K, x1 = 0.04	0.9366
299.15 K, x1 = 0.0499	1.051
299.15 K, x1 = 0.0707	1.067
301.15 K, x1 = 0.0001281	0.00683
301.15 K, x1 = 0.0001586	0.00814
301.15 K, x1 = 0.0003312	0.0171
301.15 K, x1 = 0.0006135	0.0315
301.15 K, x1 = 0.001095	0.0529
301.15 K, x1 = 0.002002	0.0904
301.15 K, x1 = 0.005707	0.213
301.15 K, x1 = 0.01	0.406
301.15 K, x1 = 0.0197	0.713
301.15 K, x1 = 0.04	0.9737
301.15 K, x1 = 0.0499	1.09
301.15 K, x1 = 0.0707	1.112
303.15 K, x1 = 0.0001281	0.00711
303.15 K, x1 = 0.0001586	0.00847
303.15 K, x1 = 0.0003312	0.0177
303.15 K, x1 = 0.0006135	0.0328
303.15 K, x1 = 0.001095	0.0547
303.15 K, x1 = 0.002002	0.0936
303.15 K, x1 = 0.005707	0.22
303.15 K, x1 = 0.01	0.421
303.15 K, x1 = 0.0197	0.741
303.15 K, x1 = 0.04	1.011
303.15 K, x1 = 0.0499	1.132
303.15 K, x1 = 0.0707	1.152
305.15 K, x1 = 0.0001281	0.00737
305.15 K, x1 = 0.0001586	0.0088
305.15 K, x1 = 0.0003312	0.0184
305.15 K, x1 = 0.0006135	0.034
305.15 K, x1 = 0.001095	0.0566
305.15 K, x1 = 0.002002	0.0969
305.15 K, x1 = 0.005707	0.228
305.15 K, x1 = 0.01	0.436
305.15 K, x1 = 0.0197	0.768
305.15 K, x1 = 0.04	1.047
305.15 K, x1 = 0.0499	1.169
305.15 K, x1 = 0.0707	1.199
307.15 K, x1 = 0.0001281	0.00763
307.15 K, x1 = 0.0001586	0.0092
307.15 K, x1 = 0.0003312	0.0191
307.15 K, x1 = 0.0006135	0.0352
307.15 K, x1 = 0.001095	0.0584
307.15 K, x1 = 0.002002	0.1
307.15 K, x1 = 0.005707	0.235
307.15 K, x1 = 0.01	0.451
307.15 K, x1 = 0.0197	0.794
307.15 K, x1 = 0.04	1.083
307.15 K, x1 = 0.0499	1.208
307.15 K, x1 = 0.0707	1.244
309.15 K, x1 = 0.0001281	0.0079
309.15 K, x1 = 0.0001586	0.00954
309.15 K, x1 = 0.0003312	0.0198
309.15 K, x1 = 0.0006135	0.0364
309.15 K, x1 = 0.001095	0.0603
309.15 K, x1 = 0.002002	0.103
309.15 K, x1 = 0.005707	0.243
309.15 K, x1 = 0.01	0.465
309.15 K, x1 = 0.0197	0.823
309.15 K, x1 = 0.04	1.124
309.15 K, x1 = 0.0499	1.246
309.15 K, x1 = 0.0707	1.286
311.15 K, x1 = 0.0001281	0.00818
311.15 K, x1 = 0.0001586	0.00991
311.15 K, x1 = 0.0003312	0.0205
311.15 K, x1 = 0.0006135	0.0376
311.15 K, x1 = 0.001095	0.0621
311.15 K, x1 = 0.002002	0.106
311.15 K, x1 = 0.005707	0.251
311.15 K, x1 = 0.01	0.48
311.15 K, x1 = 0.0197	0.849
311.15 K, x1 = 0.04	1.161
311.15 K, x1 = 0.0499	1.282
311.15 K, x1 = 0.0707	1.342
313.15 K, x1 = 0.0001281	0.00848
313.15 K, x1 = 0.0001586	0.0103
313.15 K, x1 = 0.0003312	0.0212
313.15 K, x1 = 0.0006135	0.0389
313.15 K, x1 = 0.001095	0.064
313.15 K, x1 = 0.002002	0.11
313.15 K, x1 = 0.005707	0.258
313.15 K, x1 = 0.01	0.494
313.15 K, x1 = 0.0197	0.874
313.15 K, x1 = 0.04	1.195
313.15 K, x1 = 0.0499	1.319
313.15 K, x1 = 0.0707	1.374
315.15 K, x1 = 0.0001281	0.00879
315.15 K, x1 = 0.0001586	0.0107
315.15 K, x1 = 0.0003312	0.022
315.15 K, x1 = 0.0006135	0.0401
315.15 K, x1 = 0.001095	0.0658
315.15 K, x1 = 0.002002	0.113
315.15 K, x1 = 0.005707	0.266
315.15 K, x1 = 0.01	0.508
315.15 K, x1 = 0.0197	0.9
315.15 K, x1 = 0.04	1.233
315.15 K, x1 = 0.0499	1.366
315.15 K, x1 = 0.0707	1.408
317.15 K, x1 = 0.0001281	0.00918
317.15 K, x1 = 0.0001586	0.011
317.15 K, x1 = 0.0003312	0.0227
317.15 K, x1 = 0.0006135	0.0413
317.15 K, x1 = 0.001095	0.0676
317.15 K, x1 = 0.002002	0.116
317.15 K, x1 = 0.005707	0.274
317.15 K, x1 = 0.01	0.522
317.15 K, x1 = 0.0197	0.922
317.15 K, x1 = 0.04	1.271
317.15 K, x1 = 0.0499	1.39
317.15 K, x1 = 0.0707	1.469
319.15 K, x1 = 0.0001281	0.00954
319.15 K, x1 = 0.0001586	0.0114
319.15 K, x1 = 0.0003312	0.0236
319.15 K, x1 = 0.0006135	0.0424
319.15 K, x1 = 0.001095	0.0694
319.15 K, x1 = 0.002002	0.119
319.15 K, x1 = 0.005707	0.281
319.15 K, x1 = 0.01	0.536
319.15 K, x1 = 0.0197	0.945
319.15 K, x1 = 0.04	1.309
319.15 K, x1 = 0.0499	1.434
319.15 K, x1 = 0.0707	1.527
321.15 K, x1 = 0.0001281	0.01
321.15 K, x1 = 0.0001586	0.0118
321.15 K, x1 = 0.0003312	0.0245
321.15 K, x1 = 0.0006135	0.0436
321.15 K, x1 = 0.001095	0.0712
321.15 K, x1 = 0.002002	0.122
321.15 K, x1 = 0.005707	0.289
321.15 K, x1 = 0.01	0.549
321.15 K, x1 = 0.0197	0.968
321.15 K, x1 = 0.04	1.344
321.15 K, x1 = 0.0499	1.466
321.15 K, x1 = 0.0707	1.567
323.15 K, x1 = 0.0001281	0.0104
323.15 K, x1 = 0.0001586	0.0122
323.15 K, x1 = 0.0003312	0.0254
323.15 K, x1 = 0.0006135	0.0447
323.15 K, x1 = 0.001095	0.0729
323.15 K, x1 = 0.002002	0.125
323.15 K, x1 = 0.005707	0.296
323.15 K, x1 = 0.01	0.563
323.15 K, x1 = 0.0197	0.988
323.15 K, x1 = 0.04	1.386
323.15 K, x1 = 0.0499	1.523
323.15 K, x1 = 0.0707	1.607
